Read-outs that look alike come from different tables or passages of the source.
System: pancreatic cancer cell lines (e.g. MIA PaCa-2)
Test: Cell based assay, cell viability (CellTiter-Glo), pancreatic cancer cell lines
Conditions: Homo sapiens
Protocol: Commercially available bladder cancer, prostate cancer, lung cancer, breast cancer, blood cancer, pancreatic cancer, colorectal cancer, brain cancer, neuroblastoma, melanoma, liver cancer, cervical carcinoma, ovarian cancer, renal cancer, and papilloma cell lines were each treated with trypsin-EDTA and cultured, followed by being seeded in each well of a 96 well plate. After 24 hours of treatment at constant temperature, the respective cells were treated with the candidate compound so that a final concentration became 0 to 2 μM. The treated cells were additionally cultured for 72 hours, and cell viability was measured by using an ATP detection method (CellTiter-Glo® Luminescent Cell Viability Assay, Promega).

[1] = pancreatic cancer cell line AsPC-1, 72 hours, read-out: IC50, AsPC-1
[2] = pancreatic cancer cell line BxPC-3, 72 hours, read-out: IC50, BxPC-3
[3] = pancreatic cancer cell line CFPAC-1, 72 hours, read-out: IC50, CFPAC-1
[4] = pancreatic cancer cell line Capan-1, 72 hours, read-out: IC50, Capan-1
[5] = pancreatic cancer cell line Capan-2, 72 hours, read-out: IC50, Capan-2
[6] = pancreatic cancer cell line MIA PaCa-2, 72 hours, read-out: IC50, MIA PaCa-2
[7] = pancreatic cancer cell line PANC-1, 72 hours, read-out: IC50, PANC-1

IC50 [1] [nM]	IC50 [2] [nM]	IC50 [3] [nM]	IC50 [4] [nM]	IC50 [5] [nM]	IC50 [6] [nM]	IC50 [7] [nM]	Structure (SMILES)
> 2000	> 2000	> 10000	> 2000	> 2000	> 2000	> 2000	CC(=O)c1c([S+]([O-])Cc2ccc(SC(F)(F)F)cc2)[nH]c2c(Cl)ccc(Cl)c2c1=O (stereo not shown) [Compound 79, 3-acetyl-5,8-dichloro-2-((4-((trifluoromethyl)thio)benzyl)sulfinyl)quinolin-4(1H)-one]
> 2000	> 2000	> 10000	> 2000	> 2000	> 2000	> 2000	CC(=O)c1c([S+]([O-])Cc2ccc(S(F)(F)(F)(F)F)cc2)[nH]c2c(F)ccc(F)c2c1=O (stereo not shown) [Compound 80, 3-acetyl-5,8-difluoro-2-((4-(pentafluoro--sulfanyl)benzyl)sulfinyl)quinolin-4(1H)-one]
> 2000	> 2000	> 10000	> 2000	> 2000	> 2000	> 2000	CC(=O)c1c([S+]([O-])Cc2ccc(C(F)(F)F)o2)[nH]c2c(F)ccc(F)c2c1=O (stereo not shown) [Compound 81, 3-acetyl-5,8-difluoro-2-(((5-(trifluoromethyl)furan-2-yl)methyl)sulfinyl)quinolin-4(1H)-one]
> 2000	> 2000	> 10000	> 2000	> 2000	> 2000	> 2000	CC(=O)c1c([S+]([O-])Cc2cc(C)on2)[nH]c2c(F)ccc(F)c2c1=O (stereo not shown) [Compound 82, 3-acetyl-5,8-difluoro-2-(((5-methylisoxazol-3-yl)methyl)sulfinyl)quinolin-4(1H)-one]
> 2000	> 2000	> 10000	> 2000	> 2000	> 2000	> 2000	CC(C)C(=O)c1c([S+]([O-])Cc2ccc(SC(F)(F)F)cc2)[nH]c2c(F)ccc(F)c2c1=O (stereo not shown) [Compound 85, 5,8-difluoro-3-isobutyryl-2-((4-((trifluoromethyl)thio)benzyl)sulfinyl)quinolin-4(1H)-one]
> 2000	> 2000	> 10000	> 2000	> 2000	> 2000	> 2000	O=C(c1ccccc1)c1c([S+]([O-])Cc2ccc(S(F)(F)(F)(F)F)cc2)[nH]c2c(F)ccc(F)c2c1=O (stereo not shown) [Compound 87, 3-benzoyl-5,8-difluoro-2-((4-(pentafluoro--sulfanyl)benzyl)sulfinyl)quinolin-4(1H)-one]
> 2000	> 2000	> 10000	> 2000	> 2000	> 2000	> 2000	Cc1cc(C[S+]([O-])c2[nH]c3c(Cl)ccc(Cl)c3c(=O)c2C(=O)c2ccccc2)no1 (stereo not shown) [Compound 88, 3-benzoyl-5,8-dichloro-2-(((5-methylisoxazol-3-yl)methyl)sulfinyl)quinolin-4(1H)-one]
> 2000	> 2000	> 10000	> 2000	> 2000	> 2000	> 2000	CC(=O)c1c([S+]([O-])CN2C(=O)c3ccccc3C2=O)[nH]c2c(Cl)ccc(Cl)c2c1=O (stereo not shown) [Compound 90, 2-(((3-acetyl-5,8-dichloro-4-oxo-1,4-dihydroquinolin-2-yl)sulfinyl)methyl)isoindoline-1,3-dione]
> 2000	> 2000	> 10000	> 2000	> 2000	1420	> 2000	COC(=O)c1ccc(C[S+]([O-])c2[nH]c3c(Cl)ccc(Cl)c3c(=O)c2C(C)=O)cc1 (stereo not shown) [Compound 91, methyl 4-(((3-acetyl-5,8-dichloro-4-oxo-1,4-dihydroquinolin-2-yl)sulfinyl)methyl)benzoate]
> 2000	> 2000	> 10000	> 2000	> 2000	> 2000	> 2000	COc1cccc2[nH]c(SCc3ccc(S(F)(F)(F)(F)F)cc3)c(C(C)=O)c(=O)c12 [Compound 92, 3-acetyl-5-methoxy-2-((4-(pentafluoro--sulfanyl)benzyl)thio)quinolin-4(1H)-one]
> 2000	> 2000	> 10000	> 2000	> 2000	> 2000	> 2000	COc1cccc2[nH]c([S+]([O-])Cc3ccc(S(F)(F)(F)(F)F)cc3)c(C(C)=O)c(=O)c12 (stereo not shown) [Compound 93, 3-acetyl-5-methoxy-2-((4-(pentafluoro--sulfanyl)benzyl)sulfinyl)quinolin-4(1H)-one]
> 2000	> 2000	> 10000	> 2000	> 2000	1650	> 2000	COc1cccc2[nH]c([S+]([O-])Cc3cc(C)on3)c(C(C)=O)c(=O)c12 (stereo not shown) [Compound 94, 3-acetyl-5-methoxy-2-(((5-methylisoxazol-3-yl)methyl)sulfinyl)quinolin-4(1H)-one]
> 2000	> 2000	> 10000	> 2000	> 2000	1140	> 2000	Cc1cc(C[S+]([O-])c2[nH]c3c(Br)ccc(Cl)c3c(=O)c2C(=O)C2CC2)no1 (stereo not shown) [Compound 96, 8-bromo-5-chloro-3-(cyclopropanecarbonyl)-2-(((5-methylisoxazol-3-yl)methyl)sulfinyl)quinolin-4(1H)-one]
1740	> 2000	> 10000	1520	> 2000	860	> 2000	Cc1cc(C[S+]([O-])c2[nH]c3c(Cl)ccc(Cl)c3c(=O)c2C(=O)C2CC2)no1 (stereo not shown) [Compound 97, 5,8-dichloro-3-(cyclopropanecarbonyl)-2-(((5-methylisoxazol-3-yl)methyl)sulfinyl)quinolin-4(1H)-one]
> 2000	> 2000	> 10000	> 2000	> 2000	1270	> 2000	CC(=O)c1c([S+]([O-])Cc2ccc(C#N)s2)[nH]c2c(Br)ccc(Cl)c2c1=O (stereo not shown) [Compound 98, 5-(((3-acetyl-8-bromo-5-chloro-4-oxo-1,4-dihydroquinolin-2-yl)sulfinyl)methyl)thiophene-2-carbonitrile]
1490	> 2000	> 10000	1990	> 2000	720	> 2000	CC(=O)c1c([S+]([O-])Cc2ccc(-n3cccn3)nc2)[nH]c2c(Br)ccc(Cl)c2c1=O (stereo not shown) [Compound 99, 2-(((6-(1H-pyrazol-1-yl)pyridin-3-yl)methyl)sulfinyl)-3-acetyl-8-bromo-5-chloroquinolin-4(1H)-one]
> 2000	> 2000	> 10000	> 2000	> 2000	> 2000	> 2000	CC(=O)c1c([S+]([O-])Cc2ccc(N)nc2)[nH]c2c(Br)ccc(Cl)c2c1=O (stereo not shown) [Compound 100, 3-acetyl-2-(((6-aminopyridin-3-yl)methyl)sulfinyl)-8-bromo-5-chloroquinolin-4(1H)-one]
> 2000	> 2000	> 10000	> 2000	> 2000	1830	> 2000	O=C(c1c([S+]([O-])Cc2ccc(SC(F)(F)F)cc2)[nH]c2c(Br)ccc(Cl)c2c1=O)C1CC1 (stereo not shown) [Compound 101, 8-bromo-5-chloro-3-(cyclopropanecarbonyl)-2-((4-((trifluoromethyl)thio)benzyl)sulfinyl)quinolin-4(1H)-one]
1540	> 2000	> 10000	1660	> 2000	690	> 2000	CC(=O)c1c([S+]([O-])Cc2ccc(C(F)(F)F)nc2C)[nH]c2c(Br)ccc(Cl)c2c1=O (stereo not shown) [Compound 102, 3-acetyl-8-bromo-5-chloro-2-(((2-methyl-6-(trifluoromethyl)pyridin-3-yl)methyl)sulfinyl)quinolin-4(1H)-one]
